Test results as given in the NIST ThermoML archive (doi:10.1021/je200637v).
Numbers after ± are expanded uncertainties.

Assay: activity coefficient (dimensionless); of the first substance listed, at infinite dilution; xn = mol fraction of the nth substance listed
Settings: Liquid, Chromatography, x1 = 0

**Q.** With C1CCCCCC1 [cycloheptane] + CCCC[N+](C)(CCCC)CCCC.O=S(=O)([N-]S(=O)(=O)C(F)(F)F)C(F)(F)F as the compound, how does the activity coefficient (322.85 K) read?
**A.** The activity coefficient was 12.4 ± 0.57.

**Q.** What about the activity coefficient (332.65 K) of the same compound?
**A.** Its activity coefficient is 17.7 ± 0.82.

**Q.** What about the activity coefficient (343.15 K) of the same compound?
**A.** Its activity coefficient is 23.9 ± 1.1.

**Q.** What does the source list for C1CCCCC1 [cyclohexane] + CCCCCCCCCC[N+](C)(C)C.O=S(=O)([N-]S(=O)(=O)C(F)(F)F)C(F)(F)F?
**A.** activity coefficient (322.85 K): 2.9 ± 0.13; activity coefficient (332.65 K): 2.96 ± 0.13; activity coefficient (343.15 K): 2.8 ± 0.13

**Q.** What does the source list for C1CCCCC1 [cyclohexane] + CCCCCCCC[N+](C)(C)C.O=S(=O)([N-]S(=O)(=O)C(F)(F)F)C(F)(F)F?
**A.** activity coefficient (322.85 K): 4.08 ± 0.19; activity coefficient (332.65 K): 3.84 ± 0.17; activity coefficient (343.15 K): 3.57 ± 0.16

**Q.** For C1CCCCC1 [cyclohexane] + CCCCCCCC[N+](CCCCCCCC)(CCCCCCCC)CCCCCCCC.O=S(=O)([N-]S(=O)(=O)C(F)(F)F)C(F)(F)F, which activity coefficient (322.85 K) is on record?
**A.** Its activity coefficient is 0.95 ± 0.03.

**Q.** And the activity coefficient (332.65 K)?
**A.** The activity coefficient was 0.94 ± 0.03.

**Q.** What about the activity coefficient (343.15 K) of the same compound?
**A.** The activity coefficient was 0.92 ± 0.03.

**Q.** Which activity coefficient (322.85 K) does the source give for C1CCCCC1 [cyclohexane] + CCCC[N+](C)(CCCC)CCCC.O=S(=O)([N-]S(=O)(=O)C(F)(F)F)C(F)(F)F here?
**A.** The activity coefficient was 4.74 ± 0.22.

**Q.** And the activity coefficient (332.65 K)?
**A.** Its activity coefficient is 4.71 ± 0.21.

**Q.** What about the activity coefficient (343.15 K) of the same compound?
**A.** Its activity coefficient is 4.44 ± 0.2.

**Q.** What does the source list for CCCCCCCCCC [decane] + CCCCCCCCCC[N+](C)(C)C.O=S(=O)([N-]S(=O)(=O)C(F)(F)F)C(F)(F)F?
**A.** activity coefficient (322.85 K): 10.1 ± 0.46; activity coefficient (332.65 K): 9.82 ± 0.45; activity coefficient (343.15 K): 9.32 ± 0.43

**Q.** With CCCCCCCCCC [decane] + CCCCCCCC[N+](C)(C)C.O=S(=O)([N-]S(=O)(=O)C(F)(F)F)C(F)(F)F as the compound, how does the activity coefficient (322.85 K) read?
**A.** The activity coefficient was 19.3 ± 0.89.

**Q.** And the activity coefficient (332.65 K)?
**A.** Its activity coefficient is 17.9 ± 0.83.

**Q.** And the activity coefficient (343.15 K)?
**A.** The activity coefficient was 16.2 ± 0.75.

**Q.** With CCCCCCCCCC [decane] + CCCCCCCC[N+](CCCCCCCC)(CCCCCCCC)CCCCCCCC.O=S(=O)([N-]S(=O)(=O)C(F)(F)F)C(F)(F)F as the compound, how does the activity coefficient (322.85 K) read?
**A.** The activity coefficient was 2.3 ± 0.1.

**Q.** And the activity coefficient (332.65 K)?
**A.** The activity coefficient was 2.32 ± 0.11.

**Q.** What about the activity coefficient (343.15 K) of the same compound?
**A.** The activity coefficient was 2.21 ± 0.1.

**Q.** Which activity coefficient (322.85 K) does the source give for CCCCCCCCCC [decane] + CCCC[N+](C)(CCCC)CCCC.O=S(=O)([N-]S(=O)(=O)C(F)(F)F)C(F)(F)F here?
**A.** Its activity coefficient is 19.6 ± 0.91.

**Q.** And the activity coefficient (332.65 K)?
**A.** Its activity coefficient is 19.2 ± 0.89.

**Q.** What about the activity coefficient (343.15 K) of the same compound?
**A.** Its activity coefficient is 17.8 ± 0.82.

**Q.** What does the source list for ClCCl [dichloromethane] + CCCCCCCCCC[N+](C)(C)C.O=S(=O)([N-]S(=O)(=O)C(F)(F)F)C(F)(F)F?
**A.** activity coefficient (322.85 K): 0.51 ± 0.03; activity coefficient (332.65 K): 0.55 ± 0.03; activity coefficient (343.15 K): 0.56 ± 0.03

**Q.** With ClCCl [dichloromethane] + CCCCCCCC[N+](C)(C)C.O=S(=O)([N-]S(=O)(=O)C(F)(F)F)C(F)(F)F as the compound, how does the activity coefficient (322.85 K) read?
**A.** Its activity coefficient is 0.51 ± 0.03.

**Q.** What about the activity coefficient (332.65 K) of the same compound?
**A.** The activity coefficient was 0.53 ± 0.03.

**Q.** And the activity coefficient (343.15 K)?
**A.** Its activity coefficient is 0.54 ± 0.03.

**Q.** Which activity coefficient (322.85 K) does the source give for ClCCl [dichloromethane] + CCCCCCCC[N+](CCCCCCCC)(CCCCCCCC)CCCCCCCC.O=S(=O)([N-]S(=O)(=O)C(F)(F)F)C(F)(F)F here?
**A.** Its activity coefficient is 0.29 ± 0.04.

**Q.** What about the activity coefficient (332.65 K) of the same compound?
**A.** Its activity coefficient is 0.3 ± 0.04.

**Q.** And the activity coefficient (343.15 K)?
**A.** Its activity coefficient is 0.31 ± 0.04.

**Q.** For ClCCl [dichloromethane] + CCCC[N+](C)(CCCC)CCCC.O=S(=O)([N-]S(=O)(=O)C(F)(F)F)C(F)(F)F, which activity coefficient (322.85 K) is on record?
**A.** The activity coefficient was 0.66 ± 0.03.

**Q.** What about the activity coefficient (332.65 K) of the same compound?
**A.** The activity coefficient was 0.69 ± 0.03.

**Q.** What about the activity coefficient (343.15 K) of the same compound?
**A.** The activity coefficient was 0.7 ± 0.03.

**Q.** Which activity coefficient (322.85 K) does the source give for CCOCC [diethyl ether] + CCCCCCCCCC[N+](C)(C)C.O=S(=O)([N-]S(=O)(=O)C(F)(F)F)C(F)(F)F here?
**A.** The activity coefficient was 1.23 ± 0.04.

**Q.** What about the activity coefficient (332.65 K) of the same compound?
**A.** The activity coefficient was 1.24 ± 0.04.

**Q.** What about the activity coefficient (343.15 K) of the same compound?
**A.** Its activity coefficient is 1.21 ± 0.04.

**Q.** Which results are given for CCOCC [diethyl ether] + CCCCCCCC[N+](C)(C)C.O=S(=O)([N-]S(=O)(=O)C(F)(F)F)C(F)(F)F?
**A.** activity coefficient (322.85 K): 1.6 ± 0.06; activity coefficient (332.65 K): 1.57 ± 0.06; activity coefficient (343.15 K): 1.53 ± 0.06

**Q.** For CCOCC [diethyl ether] + CCCCCCCC[N+](CCCCCCCC)(CCCCCCCC)CCCCCCCC.O=S(=O)([N-]S(=O)(=O)C(F)(F)F)C(F)(F)F, which activity coefficient (322.85 K) is on record?
**A.** Its activity coefficient is 0.71 ± 0.03.

**Q.** What about the activity coefficient (332.65 K) of the same compound?
**A.** Its activity coefficient is 0.71 ± 0.03.

**Q.** And the activity coefficient (343.15 K)?
**A.** Its activity coefficient is 0.71 ± 0.03.

**Q.** For CCOCC [diethyl ether] + CCCC[N+](C)(CCCC)CCCC.O=S(=O)([N-]S(=O)(=O)C(F)(F)F)C(F)(F)F, which activity coefficient (322.85 K) is on record?
**A.** The activity coefficient was 1.65 ± 0.07.

**Q.** And the activity coefficient (332.65 K)?
**A.** Its activity coefficient is 1.67 ± 0.07.

**Q.** What about the activity coefficient (343.15 K) of the same compound?
**A.** The activity coefficient was 1.65 ± 0.07.

**Q.** With CC(C)OC(C)C [diisopropyl ether] + CCCCCCCCCC[N+](C)(C)C.O=S(=O)([N-]S(=O)(=O)C(F)(F)F)C(F)(F)F as the compound, how does the activity coefficient (322.85 K) read?
**A.** The activity coefficient was 2.19 ± 0.1.

**Q.** And the activity coefficient (332.65 K)?
**A.** The activity coefficient was 2.32 ± 0.11.

**Q.** And the activity coefficient (343.15 K)?
**A.** Its activity coefficient is 2.3 ± 0.1.

**Q.** With CC(C)OC(C)C [diisopropyl ether] + CCCCCCCC[N+](C)(C)C.O=S(=O)([N-]S(=O)(=O)C(F)(F)F)C(F)(F)F as the compound, how does the activity coefficient (322.85 K) read?
**A.** Its activity coefficient is 3.22 ± 0.15.

**Q.** What about the activity coefficient (332.65 K) of the same compound?
**A.** The activity coefficient was 3.15 ± 0.14.

**Q.** And the activity coefficient (343.15 K)?
**A.** Its activity coefficient is 3.08 ± 0.14.

**Q.** With CC(C)OC(C)C [diisopropyl ether] + CCCCCCCC[N+](CCCCCCCC)(CCCCCCCC)CCCCCCCC.O=S(=O)([N-]S(=O)(=O)C(F)(F)F)C(F)(F)F as the compound, how does the activity coefficient (322.85 K) read?
**A.** Its activity coefficient is 1.08 ± 0.03.

**Q.** And the activity coefficient (332.65 K)?
**A.** The activity coefficient was 1.08 ± 0.03.

**Q.** And the activity coefficient (343.15 K)?
**A.** The activity coefficient was 1.08 ± 0.03.

**Q.** Which activity coefficient (322.85 K) does the source give for CC(C)OC(C)C [diisopropyl ether] + CCCC[N+](C)(CCCC)CCCC.O=S(=O)([N-]S(=O)(=O)C(F)(F)F)C(F)(F)F here?
**A.** The activity coefficient was 3.31 ± 0.15.

**Q.** What about the activity coefficient (332.65 K) of the same compound?
**A.** Its activity coefficient is 3.35 ± 0.15.

**Q.** What about the activity coefficient (343.15 K) of the same compound?
**A.** The activity coefficient was 3.35 ± 0.15.

**Q.** What does the source list for CCCCCCCCCCCC [dodecane] + CCCCCCCCCC[N+](C)(C)C.O=S(=O)([N-]S(=O)(=O)C(F)(F)F)C(F)(F)F?
**A.** activity coefficient (322.85 K): 15.1 ± 0.7; activity coefficient (332.65 K): 14.8 ± 0.68; activity coefficient (343.15 K): 13.8 ± 0.63
